Laboratory results taken from the NIST ThermoML archive (doi:10.1021/acs.jced.8b00812).

Details: Liquid; for viscosity: Capillary tube (Ostwald / Ubbelohde) method; for mass density: Vibrating tube method

CCCCO [butan-1-ol]
Details | mass density [kg/m3] | viscosity [mPa·s]
298.12 K, 2010 kPa | 806.8 | 2.608
298.12 K, 3910 kPa | 808.2 | 2.657
298.12 K, 6020 kPa | 809.8 | 2.708
298.12 K, 8030 kPa | 811.2 | 2.752
298.12 K, 9910 kPa | 812.5 | 2.797
298.12 K, 16020 kPa | 816.6 | 2.94
298.12 K, 19030 kPa | 818.5 | 3.018
298.12 K, 22000 kPa | 820.4 | 3.092
298.12 K, 25020 kPa | 822.3 | 3.166
298.12 K, 28000 kPa | 824 | 3.237
298.12 K, 30010 kPa | 825.1 | 3.287
298.13 K, 13010 kPa | 814.6 | 2.867
303.15 K, 2010 kPa | 803.3 | 2.351
303.15 K, 4000 kPa | 804.8 | 2.393
303.15 K, 5980 kPa | 806.3 | 2.436
303.15 K, 8010 kPa | 807.8 | 2.479
303.15 K, 9990 kPa | 809.2 | 2.522
303.15 K, 12990 kPa | 811.3 | 2.586
303.15 K, 15990 kPa | 813.3 | 2.65
303.15 K, 22010 kPa | 817.3 | 2.779
303.15 K, 25010 kPa | 819.1 | 2.843
303.15 K, 27970 kPa | 820.9 | 2.912
303.15 K, 29990 kPa | 822.1 | 2.957
303.16 K, 19000 kPa | 815.3 | 2.714
313.15 K, 10020 kPa | 801.8 | 1.969
313.15 K, 12980 kPa | 803.9 | 2.019
313.15 K, 22020 kPa | 810.2 | 2.182
313.15 K, 25010 kPa | 812.2 | 2.237
313.16 K, 1990 kPa | 795.5 | 1.832
313.16 K, 3980 kPa | 797.1 | 1.868
313.16 K, 5990 kPa | 798.7 | 1.902
313.16 K, 7980 kPa | 800.2 | 1.935
313.16 K, 15980 kPa | 806.1 | 2.073
313.16 K, 19010 kPa | 808.2 | 2.125
313.16 K, 27990 kPa | 814.1 | 2.292
313.16 K, 29990 kPa | 815.3 | 2.329
323.14 K, 2000 kPa | 787.9 | 1.421
323.14 K, 3920 kPa | 789.6 | 1.446
323.14 K, 6030 kPa | 791.3 | 1.473
323.14 K, 8000 kPa | 792.9 | 1.499
323.14 K, 10020 kPa | 794.5 | 1.525
323.14 K, 13040 kPa | 796.9 | 1.565
323.14 K, 16050 kPa | 799.2 | 1.603
323.14 K, 19000 kPa | 801.3 | 1.646
323.14 K, 21990 kPa | 803.4 | 1.684
323.14 K, 24970 kPa | 805.5 | 1.723
323.14 K, 28000 kPa | 807.5 | 1.759
323.14 K, 29970 kPa | 808.8 | 1.785
